Where “and” joins values, the source holds several entries; their conditions need not be identical. Identical values can stand only once. Like-named read-outs stand apart in the source and are kept apart here.
Legend:
[1] = biological target: T1, Human full-length DNMT1 (Homo sapiens, UniProt P26358); assay: DNMT inhibition assay (3H-SAM filter-binding) against DNMT1; type: biochemical
T1 construct: Human full-length DNMT1 enzyme purchased from BPS Biosciences; purchased BPS Biosciences

[2] = biological target: T2, Human DNMT3b/3L (Homo sapiens, UniProt Q9UBC3); assay: DNMT inhibition assay (3H-SAM filter-binding) against DNMT3b/3L; type: biochemical; conditions: read-out: IC50 against DNMT 3b/3L
T2 construct: truncated 3b (catalytic domain)
Description: DNMT Assays Used for Examples 1-114
Human DNMT3b/3L was coexpressed using truncated 3b (catalytic domain) and 3L (DNA binding domain) at GSK. Human full-length DNMT1 enzyme purchased from BPS Biosciences. Poly(dIdC) DNA (Sigma) was used at 0.002 mg/mL. Tritiated SAM (Perkin Elmer) was used at 500 nM. DNA, DNMT enzyme, and inhibitors were mixed with assay buffer (20 mM Tris pH8, 5% glycerol, 1 mM EDTA, 100 μg/mL BSA, 1 mM DTT, 50 mM NaCl) and pre-incubated without SAM for 30 min. H3 SAM was then added to initiate the methylation reaction which continues at 37° C. for 1 h. Reaction mixture was then transferred to a filter plate (Millipore Multiscreen HTS DE), then washed with 50 mM H2PO4 and 95% Ethanol. Scintillation counts were measured on the Perkin Elmer Microbeta scintillation counter.
DNMT Assays Used for Examples 115-120
DNMT enzymes were produced by GlaxoSmithKline. Human DNMT3b/3L was coexpressed using truncated 3b (catalytic domain) and 3L (DNA binding domain). DNMT1 was human, full-length protein. 3H-SAM was purchased from Perkin Elmer. Custon DNA oligonucleotide substrates were purchased from Integrated DNA technologies.
28-mer DNA Oligonucleotide Duplex (for DNMT3b/3L)
DNMT enzyme was preincubated with compound for 1 hr at RT, after which SAM and DNA were added to initiate the methylation reaction. The methylation reaction was quenched after 20 min upon the addition of >100 fold excess non-radioactive SAM. The quenched reaction mixture (80%) was transferred to a DEAE filter binding plate (Millipore Multiscreen HTS DE), washed with 3 volumes of 50 mM phosphate buffer and dried. Scintillation cocktail (MicroScint-20) was added to the plate and radioactivity (3H-DNA) was measured using a Perkin Elmer TopCount scintillation counter.
Final reagent concentrations (prior to quench) consisted of the following:
DNMT3b/3L (10 nM), 200 nM DNA, 200 nM 3H-SAM in 20 mM Tris (pH 8), 1 mM DTT, 1 mM EDTA, 25 mM NaCl, 1 mM CHAPS and 2% DMSO.

[3] = at least one experimental run or average of several runs, Examples 1-114 and 115-120 use different protocols

T1 sequence (P26358 whole entry): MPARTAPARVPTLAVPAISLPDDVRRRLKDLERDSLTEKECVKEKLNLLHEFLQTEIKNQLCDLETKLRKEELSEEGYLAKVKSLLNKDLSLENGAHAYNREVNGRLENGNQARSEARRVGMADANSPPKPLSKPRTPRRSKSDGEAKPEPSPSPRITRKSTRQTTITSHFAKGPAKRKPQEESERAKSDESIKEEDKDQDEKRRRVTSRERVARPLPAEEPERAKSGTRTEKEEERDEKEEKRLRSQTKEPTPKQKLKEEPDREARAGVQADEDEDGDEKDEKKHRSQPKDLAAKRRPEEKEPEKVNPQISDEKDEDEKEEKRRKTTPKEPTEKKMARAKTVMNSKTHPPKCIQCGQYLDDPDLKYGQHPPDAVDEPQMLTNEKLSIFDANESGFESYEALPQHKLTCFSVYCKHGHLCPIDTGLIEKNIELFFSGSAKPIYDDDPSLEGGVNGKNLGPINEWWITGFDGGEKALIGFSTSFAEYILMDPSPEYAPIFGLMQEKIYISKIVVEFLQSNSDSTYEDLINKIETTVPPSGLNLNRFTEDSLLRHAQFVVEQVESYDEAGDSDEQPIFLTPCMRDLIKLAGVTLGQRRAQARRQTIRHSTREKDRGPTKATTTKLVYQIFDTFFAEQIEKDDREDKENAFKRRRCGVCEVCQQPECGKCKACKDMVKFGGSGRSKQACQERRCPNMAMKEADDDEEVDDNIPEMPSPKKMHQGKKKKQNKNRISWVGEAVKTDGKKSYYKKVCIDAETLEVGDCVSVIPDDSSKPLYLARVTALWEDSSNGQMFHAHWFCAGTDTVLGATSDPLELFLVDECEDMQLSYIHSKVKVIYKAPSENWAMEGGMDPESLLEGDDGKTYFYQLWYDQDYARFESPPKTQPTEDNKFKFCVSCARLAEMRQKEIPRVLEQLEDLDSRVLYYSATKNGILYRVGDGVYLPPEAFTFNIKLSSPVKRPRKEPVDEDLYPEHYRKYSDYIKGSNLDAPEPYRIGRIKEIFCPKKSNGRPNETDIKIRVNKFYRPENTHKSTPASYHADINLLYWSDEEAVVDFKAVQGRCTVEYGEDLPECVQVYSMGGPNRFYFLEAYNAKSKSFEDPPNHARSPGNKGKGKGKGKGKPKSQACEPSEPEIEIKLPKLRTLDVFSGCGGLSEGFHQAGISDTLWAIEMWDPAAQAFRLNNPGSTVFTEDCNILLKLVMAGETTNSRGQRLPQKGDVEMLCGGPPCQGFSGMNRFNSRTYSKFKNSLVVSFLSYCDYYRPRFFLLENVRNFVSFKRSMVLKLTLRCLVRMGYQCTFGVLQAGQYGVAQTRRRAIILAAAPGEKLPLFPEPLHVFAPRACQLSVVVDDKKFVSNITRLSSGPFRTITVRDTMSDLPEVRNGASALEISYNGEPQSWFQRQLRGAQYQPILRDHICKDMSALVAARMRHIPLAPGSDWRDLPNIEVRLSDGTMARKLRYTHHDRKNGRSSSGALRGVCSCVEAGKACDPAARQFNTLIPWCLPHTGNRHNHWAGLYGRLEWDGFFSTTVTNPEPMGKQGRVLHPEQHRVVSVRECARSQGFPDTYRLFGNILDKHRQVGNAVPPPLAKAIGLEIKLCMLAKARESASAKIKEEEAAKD

Row | IC50 [1, 3] | IC50 [2, 3] | Compound | further results
1 | 19.1 to 300 µM |  | Nc1ccccc1CNC(=S)NCc1ccnc2[nH]ccc12 [Example 26, 1-((1H-pyrrolo[2,3-b]pyridin-4-yl)methyl)-3-(2-aminobenzyl)thiourea] | 
2 | 19.1 to 300 µM and ≤ 100 µM |  | Nc1ccc([N+](=O)[O-])cc1CNC(=S)NCc1ccnc2[nH]ccc12 [Example 30, 1-((1H-pyrrolo[2,3-b]pyridin-4-yl)methyl)-3-(2-amino-5-nitrobenzyl)thiourea] | 
3 | 19.1 to 300 µM | ≤ 20 µM | C=CC(=O)Nc1cc(CNC(=S)NCc2ccnc3[nH]ccc23)cc(C(F)(F)F)c1 [Example 35, N-(3-((3-((1H-pyrrolo[2,3-b]pyridin-4-yl)methyl)thioureido)methyl)-5-(trifluoromethyl)phenyl)acrylamide] | 
4 |  |  | COCC#CC(=O)Nc1cccc(CNC(=S)NCc2ccnc3[nH]ccc23)c1 [Example 41, N-(3-((3-((1H-pyrrolo[2,3-b]pyridin-4-yl)methyl)thioureido)methyl)phenyl)-4-methoxybut-2-ynamide] | IC50 [2]: ≤ 1 µM; IC50 ([1]; read-out: IC50 against DNMT 1): 19.1 to 300 µM and ≤ 200 µM
5 | 19.1 to 300 µM | ≤ 20 µM | CC#CC(=O)Nc1ccccc1CNS(=O)(=O)NCc1ccnc2[nH]ccc12 [Example 42, N-(2-(((N-((1H-pyrrolo[2,3-b]pyridin-4-yl)methyl)sulfamoyl)amino)methyl)phenyl)but-2-ynamide] | 
6 | 19.1 to 300 µM |  | NC(CCCCNC(=S)NCc1ccnc2[nH]ccc12)C(=O)O (stereo not shown) [Example 46, 6-(3-((1H-pyrrolo[2,3-b]pyridin-4-yl)methyl)thioureido)-2-aminohexanoic acid] | 
7 | 19.1 to 300 µM and ≤ 200 µM |  | O=C(C#Cc1ccc(F)cc1)NCCNC(=S)NCc1ccnc2[nH]ccc12 [Example 85, N-(2-(3-((1H-pyrrolo[2,3-b]pyridin-4-yl)methyl)thioureido)ethyl)-3-(4-fluorophenyl)propiolamide] | 
8 | 19.1 to 300 µM and 75 µM and ≤ 100 µM |  | O=C(C#Cc1cccc(F)c1)NCCNC(=S)NCc1ccnc2[nH]ccc12 [Example 86, N-(2-(3-((1H-pyrrolo[2,3-b]pyridin-4-yl)methyl)thioureido)ethyl)-3-(3-fluorophenyl)propiolamide] | 
9 | 19.1 to 300 µM and ≤ 100 µM | ≤ 1 µM | O=C(C#Cc1ccc([N+](=O)[O-])cc1)NCCNC(=S)NCc1ccnc2[nH]ccc12 [Example 87, N-(2-(3-((1H-pyrrolo[2,3-b]pyridin-4-yl)methyl)thioureido)ethyl)-3-(4-nitrophenyl)propiolamide] | 
10 | 19.1 to 300 µM |  | Cc1ccc(C#CC(=O)NCCNC(=S)NCc2ccnc3[nH]ccc23)cc1 [Example 88, N-(2-(3-((1H-pyrrolo[2,3-b]pyridin-4-yl)methyl)thioureido)ethyl)-3-(p-tolyl)propiolamide] | 
11 | 19.1 to 300 µM and ≤ 200 µM |  | O=C(C#Cc1ccc(Cl)cc1)NCCNC(=S)NCc1ccnc2[nH]ccc12 [Example 89, N-(2-(3-((1H-pyrrolo[2,3-b]pyridin-4-yl)methyl)thioureido)ethyl)-3-(4-chlorophenyl)propiolamide] | 
12 | 19.1 to 300 µM and ≤ 100 µM |  | COc1ccc(C#CC(=O)NCCNC(=S)NCc2ccnc3[nH]ccc23)cc1OC [Example 92, N-(2-(3-((1H-pyrrolo[2,3-b]pyridin-4-yl)methyl)thioureido)ethyl)-3-(3,4-dimethoxyphenyl)propiolamide] | 
13 | 19.1 to 300 µM and ≤ 100 µM |  | O=C(C#Cc1ccc2c(c1)OCO2)NCCNC(=S)NCc1ccnc2[nH]ccc12 [Example 93, N-(2-(3-((1H-pyrrolo[2,3-b]pyridin-4-yl)methyl)thioureido)ethyl)-3-(benzo[d][1,3]dioxol-5-yl)propiolamide] | 
14 | 19.1 to 300 µM |  | C=CC(=O)Nc1ccc([N+](=O)[O-])cc1CNC(=S)NCc1ccnc2[nH]ccc12 [Example 110, N-(2-((3-((1H-Pyrrolo[2,3-b]pyridin-4-yl)methyl)thioureido)methyl)-4-nitrophenyl)acrylamide] | 
15 | 19.1 to 300 µM and ≤ 200 µM |  | NCC(=O)Nc1ccccc1CNC(=S)NCc1ccnc2[nH]ccc12 [Example 114, N-(2-((3-((1H-Pyrrolo[2,3-b]pyridin-4-yl)methyl)thioureido)methyl)phenyl)-2-aminoacetamide] | 
16 | ≤ 100 µM | ≤ 10 µM | S=C(NCc1ccccc1C1CCCNC1)NCc1ccnc2[nH]ccc12 (stereo not shown) [Example 116, 1-((1H-pyrrolo[2,3-b]pyridin-4-yl)methyl)-3-(2-(piperidin-3-yl)benzyl)thiourea] | 
17 |  | ≤ 10 µM | CN(C(=O)C#Cc1ccccc1)c1cccc(CNC(=S)NCc2ccnc3[nH]ccc23)c1 [Example 117, N-(3-((3-((1H-pyrrolo[2,3-b]pyridin-4-yl)methyl)thioureido)methyl)phenyl)-N-methyl-3-phenylpropiolamide] | 
18 |  | ≤ 1 µM | O=C(C#CC1CCCC1)Nc1cccc(CNC(=O)NCc2ccnc3[nH]ccc23)c1 [Example 118, N-(3-((3-((1H-pyrrolo[2,3-b]pyridin-4-yl)methyl)ureido)methyl)phenyl)-3-cyclopentylpropiolamide] | 
19 |  | ≤ 1 µM | O=C(NCc1ccnc2[nH]ccc12)NC1CN(C(=O)C#CC2CCCCC2)C1 [Example 119, 1-((1H-pyrrolo[2,3-b]pyridin-4-yl)methyl)-3-(1-(3-cyclohexylpropioloyl)azetidin-3-yl)urea] | 
20 |  | ≤ 1 µM | O=C(NCc1ccccc1-c1cscn1)NCc1ccnc2[nH]ccc12 [Example 120, 1-((1H-pyrrolo[2,3-b]pyridin-4-yl)methyl)-3-(2-(thiazol-4-yl)benzyl)urea] | 
